# Measured values published in patent publication US20050009865A1, “Quinoline derivative as diagnostic probe for disease with tau protein accumulation” (priority 2002, published 2005).
# “Also recorded” adds a separate entry of the source.
# Assays:
# [1] = Testing of acute toxicity, intravenous administration; conditions: male, Crj:CD1, mouse, in vivo, mice, observed up to 7 days, read-out: Maximum Tolerated Dose
# Protocol: Acute toxicity of the inventive compounds was determined employing mice by intravenous administration. Male Crj:CD1 mice were used and divided into groups of 4 mice, with an average weight of each group of 30-34 g. Each compound was dissolved in saline, 1N HCl, or a mixture of 1N HCl/polyethylene glycol 400, and then diluted with distilled water for injection, and administered via tail vein. Up to 7 days after administration, observations were made.
# [2] = Testing of blood-brain barrier permeability; format: in vivo; conditions: mice, two minutes after intravenous administration
# Protocol: Compounds of the present invention were intravenously administered to mice to determine their in vivo blood-brain barrier permeability. • (1) Mice utilized S1c:ICR weighing 30-40 g (7 weeks old, n=3) (Nippon SLC). • (2) A test compound was dissolved in 1N HCl, and then diluted with purified water, and injected via tail vein. Two minutes after administration, the mice, under ether anesthesia, were subjected to taking blood from the abdominal aorta with a heparin-treated syringe and removing the brain. • (3) After taking blood, blood samples were centrifuged at 14,000 rpm at 4° C. for 10 minutes, and their supernatants were kept at −80° C. as plasma sample. The brain (including cerebellum) was kept at −80° C. after its removal. • (4) The plasma sample, when used, was thawed, diluted with purified water, and then applied to a conditioned C18 solid-phase extraction cartridge (bond elute C18, 200 mg, Lot. 070864, Varian), followed by elution with methyl alcohol. • (5) The brain material, when used, were subjected to measuring its wet weight with the brain remaining frozen, and saline was added for homogenization. The homogenate was centrifuged for 10 minutes, and the supernatant was applied to a conditioned C18 solid-phase extraction cartridge and eluted with methyl alcohol. • (6) The test compound was detected at its maximum absorbance (a UV/VIS detector, Waters) and fluorescence (an FS-8020 fluorometer, Tosoh) employing high performance liquid chromatography. • (7) For each of the plasma and brain, the content of the test compound in the plasma or brain (%ID (injected dose)/ml or g) was determined, relative to the administered-dose.
# [3] = tested on: neurofibrillary tangles (or phosphorylated tau protein); assay: Staining of neurofibrillary tangles in brain sections of a patient with Alzheimer's disease (screening method); format: binding, human; conditions: for staining of neurofibrillary tangles (or phosphorylated tau protein): brain/hippocampus sections of Alzheimer's disease patient, 100 μM compound in 50% ethanol, fluorescence microscopy, compared with thioflavin S on adjacent section
# Excerpt: (§1) The following explanation is made about a method for screening the inventive compounds. • (1) Temporal lobe or hippocampus specimens of the brain of a patient who had been definitely diagnosed pathologically as Alzheimer's disease and of a normal aged individual were used. These specimens were provided from Fukushimura Hospital, our joint research facility, with the consent to their use for research purpose received from the bereaved family of the patient (BF Research Laboratories Institutional Ethics Board Permission No. RS-99-02). • (2) The brain tissues embedded in paraffin were sliced 6 or 8 μm thick, extended on slides, and dried. The paraffin-embedded brain sections were deparaffined by washing sequentially with xylene (10 minutes, twice), 100% ethanol (5 minutes, twice), 95% ethanol (5 minutes, twice), and a stream of water (10 minutes). • (3) Pre-treatment for staining with compounds of the present invention involved treating the sections for eliminating self-fluorescence due to lipofuscin. First, the deparaffined sections were immersed into a 10% formalin solution for 60 minutes and washed with PBS (phosphate-buffered saline) for 5 minutes, followed by immersion into a 0.25% solution of KMnO4 for 90 minutes. After washing twice with PBS for 2 minutes each, the sections were immersed into a solution of 0.1% K2S2O5/oxalic acid for about 30 seconds each, and then washed three times with PBS for 2 minutes each. • (4) About 150 μl of a 100 μM solution of a compound of the present invention dissolved in 50% ethanol was added dropwise onto the sections and allowed the reaction to be carried out for 10 minutes. The sections were dipped into tap water five times, and then 50% ethanol three to five times, followed by immediate classification. After that, the sections were immersed into PBS for 60 minutes, enclosed with Fluor Save Reagent (Calbiochem), and examined under UV-B excitation using a fluorescent microscope (Nikon, Eclips E800). Pictures were taken using a digital camera (Plaroid [sic] PDMCII).
# Immunostaining was carried out as follows: • (1) After the sections were deparaffined, the sections were washed twice with distilled water for 2 minutes each, tissues were marked with an Immunopen. About 150 μl of 3% hydrogen peroxide (diluted in methanol) was added dropwise and allowed to stand at room temperature for 10 minutes. • (2) The sections were-washed twice with cold PBS-Tween 20 for 5 minutes each, and two drops of blocking serum were added and allowed the reaction to be carried out at 37° C. for 30 minutes. Excess water was removed, and two drops of pSer422, an antibody specific to phosphorylated tau (Wako Phosphorylated Tau Immunohistostain Kit 299-57301) and allowed the reaction to be carried out overnight at 4° C. • (3) On the next day, the sections were washed five times with cold PBS-Tween 20 for 2 minutes each, and two drops of a solution of goat anti-rabbit IgG conjugated to biotin were added and allowed the reaction to be carried out at 37° C. for 1 hour. […]
# senile plaques = assay: Staining of senile plaques in hippocampus sections of the brain of a patient with Alzheimer's disease; format: binding, human; conditions: compared with thioflavin S on adjacent section
# Excerpt: as §1
# [4] = target: T1, Aβ1-40 taking β-sheet structures (Homo sapiens, UniProt P05067); assay: Binding to amyloid β-protein on slides; conditions: Aβ1-40 on slides; 1 μM solution of test chemical
# T1 construct: Aβ1-40 (Peptide Institute, Inc., Lot No. 520311, MW: 4329.8); purchased Peptide Institute, Inc. Lot No. 520311
# T1 sequence (P05067 672-711 limits assumed): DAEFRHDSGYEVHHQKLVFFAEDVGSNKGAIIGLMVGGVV
# Protocol: Properties of binding to amyloid β-protein were examined as follows: • (1) Aβ1-40 (Peptide Institute, Inc., Lot No. 520311, MW: 4329.8) was dissolved in 50 mM potassium phosphate buffer (pH 7.4) at a concentration of 500 μM, and incubated at 37° C. for 3 days or longer, thereby making the protein take β-sheet structures. • (2) After incubation, the Aβ solution was vortexed and diluted to 50 μM for use. • (3) 20 μl of the Aβ1-40 solution was dropped onto a poly-L-lysine-coated slide (MICRO SLIDE GLASS S7441, […]) and dried on an extender (Sakura PS-C2) at about 45° C. • (4) The Aβ1-40 on the slide was covered with 20 μl of 1 μM solution of a chemical to be tested, allowed to stand at room temperature for about 10 minutes, and then washed with a stream of water (tap water), followed by examination under a microscope.
Compound,MTD at 7 days [1] [mg/kg],Brain content (blood-brain barrier permeability) [2],Plasma content [2],staining of neurofibrillary tangles (or phosphorylated tau protein) [3],"staining of phosphorylated tau protein recognized by pSer422 antibody ([3]; hippocampus sections of Alzheimer's disease patient, adjacent section immunostained with pSer422)",staining of senile plaques (senile plaques),binding to Aβ1-40 taking β-sheet structures (fluorescence) [4]
"CNc1ccc(-c2ccc3ccccc3n2)cc1 [BF-158, 2-(4-(methylamino)phenyl)quinoline]",≥ 10,9.7 % ID/g or ml,1.8 % ID/g or ml,,,,
"Nc1ccc(-c2ccc3ccccc3n2)cc1 [BF-170, 2-(4-(amino)phenyl)quinoline]",≥ 10,9.1 % ID/g or ml,1.4 % ID/g or ml,stained only neurofibrillary tangles (or phosphorylated tau protein),stained phosphorylated tau protein which was recognized by pSer422,stained only neurofibrillary tangles (or phosphorylated tau protein),hardly bound to this Aβ1-40 (fluorescence was not observed); also recorded: hardly bound to the Aβ1-40 protein (fluorescence was not observed)
"CN(C)c1ccc(-c2ccc3ccccc3n2)cc1 [Compound N-310, 2-(4-(dimethylamino)phenyl)quinoline]",,15.0 % ID/g or ml,1.0 % ID/g or ml,stained neurofibrillary tangles (or phosphorylated tau protein),,,
"CCN(CC)c1ccc(-c2ccc3ccccc3n2)cc1 [Compound N-313, 2-(4-(diethylamino)phenyl)quinoline]",≥ 10,4.6 % ID/g or ml,1.1 % ID/g or ml,stained neurofibrillary tangles (or phosphorylated tau protein),,,
"Cc1ccc2ccc(-c3ccc(N(C)C)cc3)nc2c1 [SA-820, 2-(4-(dimethylamino)phenyl)-7-methylquinoline]",,,,,,stained senile plaques (wedge-shaped arrowheads) with a clearly weaker degree than that of thioflavin S; also recorded: stained senile plaques (wedge-shaped arrowheads) with a clearly-weaker degree than that of thioflavin S,
"CN(C)c1ccc(-c2ccc3c(ccc4ccccc43)n2)cc1 [SA-821, 3-(4-(dimethylamino)phenyl)benzo(f)quinoline]",,,,,,stained senile plaques (wedge-shaped arrowheads) with a clearly weaker degree than that of thioflavin S,
"Cc1ccc2c(c1)sc(-c1ccc(N(C)C)cc1)[n+]2C.[Cl-] [thioflavin T, reference compound]",,,,,,,significant binding to this Aβ1-40; also recorded: significant binding to the Aβ1-40 protein
thioflavin S [reference compound],,,,stained both senile plaques (wedge-shaped arrowheads) and neurofibrillary tangles (or phosphorylated tau protein); also recorded: stained both senile plaques and neurofibrillary tangles,,stained both senile plaques (wedge-shaped arrowheads) and neurofibrillary tangles (or phosphorylated tau protein); also recorded: stained both senile plaques and neurofibrillary tangles,
